Patent US20130324489A1, “NEW ANTIFUNGAL COMPOSITIONS” (DSM IP ASSETS B.V., priority 2011, published 2013)
Where “and” joins values, the source holds several entries; their conditions need not be identical. Equal entries are not always repeated.

Legend:
Botrytis cinerea [1] = experiment: Treatment of wounded strawberries inoculated with Botrytis cinerea (dip, mould growth); format: in vivo; details: 20° C.
Protocol: Ten fresh, organic strawberries were used per treatment. Each strawberry was wounded with a 0.5 mm long cut and each wound was inoculated with 10 μl of a Botrytis cinerea suspension containing 1×10^5 of spores/ml. […] The antifungal composition also comprised 3.1% (w/w) beeswax, 0.76% (w/w) glycerol, 0.66% (w/w) polyoxyethylene sorbitan monostearate (Tween 60), 0.03% (w/w) methylhydroxyethyl-cellulose (MHEC), 0.02% (w/w) xanthan gum, 0.02% (w/w) anti-foaming agent, 0.15% (w/w) citric acid and 0.01% (w/w) potassium sorbate. The pH of the compositions was 4. A composition without natamycin or procymidone was used as control. The treated strawberries were incubated in a closed box in the dark at 20° C. for 13 days.
During incubation, mould growth on the strawberries was assessed in a twofold manner: (i) the number of moulded strawberries per total of 10 strawberries was counted; and (ii) the antifungal activity (in %) of the individual and combined active ingredients was determined by calculating the reduction in mould growth observed on the strawberries treated with the antifungal composition in comparison to the mould growth on the strawberries treated with the control composition. The expected antifungal activity (E in %) of the combined antifungal composition comprising both active ingredients was calculated according to the Colby equation (Colby, 1967): […]
wherein X and Y are the observed antifungal activities (in %) of the individual active ingredients X and Y, respectively. If the observed antifungal activity (O in %) of the combination exceeds the expected antifungal activity (E in %) of the combination and the synergy factor O/E is thus >1.0, the combined application of the active ingredients leads to a synergistic antifungal effect.
The treated strawberries were assessed on mould growth after 4, 5 and 7 days of incubation according to the two methods described in Example 3.
The treated strawberries were incubated for 9 days and, as of day 5, assessed on mould growth daily. The antifungal activity (in %) of the individual and combined active ingredients was determined according to the method described in Example 3.
During incubation, the treated strawberries were assessed on mould growth according to the two methods described in Example 3.

Penicillium italicum = experiment: Treatment of wounded mandarins inoculated with Penicillium italicum (dip, mould growth); format: in vivo; details: 500 ppm natamycin, 2000 ppm procymidone or both, 20° C.
Protocol: Ten fresh, organic mandarins were used per treatment. The peel of each mandarin was wounded once using a cork borer according to the method described by de Lapeyre de Bellaire and Dubois (1987). Subsequently, each wound was inoculated with 10 μl of a Penicillium italicum suspension containing 1×10^4 of spores/ml. […] In addition, the antifungal compositions comprised 3.1% (w/w) beeswax, 0.76% (w/w) glycerol, 0.66% (w/w) polyoxyethylene sorbitan monostearate (Tween 60), 0.03% (w/w) methylhydroxyethylcellulose (MHEC), 0.02% (w/w) xanthan gum, 0.02% (w/w) anti-foaming agent, 0.15% (w/w) citric acid and 0.01% (w/w) potassium sorbate. The pH of the compositions was 4. A composition without natamycin or procymidone was used as control.
The treated mandarins were incubated in a closed box in the dark at 20° C. and assessed on mould growth after 6, 8, 10, 13, 15 and 18 days of incubation. The antifungal activity (in %) of the individual and combined active ingredients was determined by calculating the reduction in mould growth observed on the mandarins treated with the antifungal composition in comparison to the mould growth on the mandarins treated with the control composition according to the Colby method (Colby, 1967) described in Example 3.

Botrytis cinerea [2] = experiment: In vitro antifungal activity, 96-well microtiter plates; format: cell-based; details: 1.25 ppm natamycin, 1.5 ppm vinclozolin, 1.25 ppm procymidone, alone or natamycin + one of them, 25° C.
Protocol: The following compositions were tested: […] After incubation of the microtiter plates at 25° C., the in vitro antifungal activity (%) of the individual active ingredients was assessed by calculating the reduction in mould growth observed in the presence of the active ingredient in comparison to the mould growth observed in the absence of the active ingredient. The expected antifungal activity (E in %) of the active ingredient combination was calculated according to the Colby equation (Colby, 1967): […] wherein X and Y are the observed antifungal activities (in %) of the individual active ingredients X and Y, respectively.

[3] = 250 ppm natamycin, 250 ppm procymidone or both, day 4
[4] = 250 ppm natamycin, 250 ppm procymidone or both, day 5
[5] = 250 ppm natamycin, 250 ppm procymidone or both, day 6
[6] = 250 ppm natamycin, 250 ppm procymidone or both, day 7
[7] = 250 ppm natamycin, 250 ppm procymidone or both, day 8
[8] = 250 ppm natamycin, 250 ppm procymidone or both, day 9
[9] = 500 ppm natamycin, 1000 ppm procymidone or both, day 5
[10] = 500 ppm natamycin, 1000 ppm procymidone or both, day 7
[11] = 500 ppm natamycin, 2000 ppm procymidone or both, day 5
[12] = 500 ppm natamycin, 2000 ppm procymidone or both, day 6
[13] = 500 ppm natamycin, 2000 ppm procymidone or both, day 7
[14] = 500 ppm natamycin, 2000 ppm procymidone or both, day 12

## CC12CC1(C)C(=O)N(c1cc(Cl)cc(Cl)c1)C2=O (stereo not drawn) [Procymidone, procymidone]
Botrytis cinerea [1]; [3]
  Number of moulded strawberries/total number of 10 strawberries: 10 and 10/10
  Observed antifungal activity O (%): 58%
Botrytis cinerea [1]; [4]
  Number of moulded strawberries/total number of 10 strawberries: 10 and 10/10
  Observed antifungal activity O (%): 41%
Botrytis cinerea [1]; [5]
  Number of moulded strawberries/total number of 10 strawberries: 10 and 10/10
  Observed antifungal activity O (%): 34%
Botrytis cinerea [1]; [6]
  Number of moulded strawberries/total number of 10 strawberries: 10 and 10/10
  Observed antifungal activity O (%): 31%
Botrytis cinerea [1]; [7]
  Number of moulded strawberries/total number of 10 strawberries: 10 and 10/10
  Observed antifungal activity O (%): 27%
Botrytis cinerea [1]; [8]
  Number of moulded strawberries/total number of 10 strawberries: 10 and 10/10
  Observed antifungal activity O (%): 13%
Botrytis cinerea [1]; 250 ppm natamycin, 250 ppm procymidone or both, day 10
  Observed antifungal activity O (%): 10%
Botrytis cinerea [1]; 250 ppm natamycin, 250 ppm procymidone or both, day 12
  Observed antifungal activity O (%): 5%
Botrytis cinerea [1]; 250 ppm natamycin, 500 ppm procymidone or both, day 5
  Observed antifungal activity O (%): 39%
Botrytis cinerea [1]; 250 ppm natamycin, 500 ppm procymidone or both, day 6
  Observed antifungal activity O (%): 26%
Botrytis cinerea [1]; 250 ppm natamycin, 500 ppm procymidone or both, day 7
  Observed antifungal activity O (%): 20%
Botrytis cinerea [1]; 250 ppm natamycin, 500 ppm procymidone or both, day 8
  Observed antifungal activity O (%): 20%
Botrytis cinerea [1]; 250 ppm natamycin, 500 ppm procymidone or both, day 9
  Observed antifungal activity O (%): 17%
Botrytis cinerea [1]; 500 ppm natamycin, 1000 ppm procymidone or both, day 4
  Observed antifungal activity O (%): 69%
Botrytis cinerea [1]; [9]
  Number of moulded strawberries/total number of 10 strawberries: 10 and 10/10
  Observed antifungal activity O (%): 59%
Botrytis cinerea [1]; [10]
  Number of moulded strawberries/total number of 10 strawberries: 10 and 10/10
  Observed antifungal activity O (%): 44%
Botrytis cinerea [1]; [11]
  Number of moulded strawberries/total number of 10 strawberries: 8 and 8/10
  Observed antifungal activity O (%): 63%
Botrytis cinerea [1]; [12]
  Number of moulded strawberries/total number of 10 strawberries: 9 and 9/10
  Observed antifungal activity O (%): 51%
Botrytis cinerea [1]; [13]
  Number of moulded strawberries/total number of 10 strawberries: 10 and 10/10
  Observed antifungal activity O (%): 38%
Botrytis cinerea [1]; 500 ppm natamycin, 2000 ppm procymidone or both, day 8
  Observed antifungal activity O (%): 35%
Botrytis cinerea [1]; 500 ppm natamycin, 2000 ppm procymidone or both, day 8-10
  Number of moulded strawberries/total number of 10 strawberries: 10 and 10/10
Botrytis cinerea [1]; 500 ppm natamycin, 2000 ppm procymidone or both, day 9
  Observed antifungal activity O (%): 23%
Botrytis cinerea [1]; 500 ppm natamycin, 2000 ppm procymidone or both, day 10
  Observed antifungal activity O (%): 13%
Botrytis cinerea [1]; [14]
  Number of moulded strawberries/total number of 10 strawberries: 10 and 10/10
  Observed antifungal activity O (%): 2%
Botrytis cinerea [1]; 500 ppm natamycin, 2000 ppm procymidone or both, day 13
  Observed antifungal activity O (%): 0%
Penicillium italicum; day 6
  Observed antifungal activity O (%): 0%
Penicillium italicum; day 8
  Observed antifungal activity O (%): 0%
Penicillium italicum; day 10
  Observed antifungal activity O (%): 0%
Penicillium italicum; day 13
  Observed antifungal activity O (%): 0%
Penicillium italicum; day 15
  Observed antifungal activity O (%): 0%
Penicillium italicum; day 18
  Observed antifungal activity O (%): 0%
Botrytis cinerea [2]; day 3
  Observed antifungal activity O (%): 0%
Botrytis cinerea [2]; day 6
  Observed antifungal activity O (%): 0%
